Measurements as given in ChEMBL document CHEMBL5724914, “Linking interpersonal differences in gut microbiota composition and drug biotransformation activity” (2024).

Key:
[1] = (§1) The drug is tested on Z-009 corresponding to pig gut metagenome with ENA study accession number: PRJEB37062 and ENA sample accession number: ERS12561809 for biotransformation under anaerobic condition. The drug concentrations were measured over 9 timepoints collected between 0 and 24 hours of incubation by liquid-chromatography-coupled mass spectrometry (LC–MS); conditions: 2 µM
[2] = as §1, with “Z-006” for “Z-009”, “mouse” for “pig”, “ERS12561806” for “ERS12561809”; conditions: 2 µM
[3] = human gut metagenome, 24 h, 2 µM
[4] = as §1, with “Z-023” for “Z-009”, “to” for “to pig gut”, “ERS12561822” for “ERS12561809”; conditions: 2 µM
[5] = as §1, with “Z-004” for “Z-009”, “to” for “to pig gut”, “ERS12561804” for “ERS12561809”; conditions: 2 µM
[6] = human gut metagenome, 24 h, 2 µM; remark: listed apart in the source
[7] = as §1, with “Z-025” for “Z-009”, “rabbit” for “pig”, “ERS12561824” for “ERS12561809”; conditions: 2 µM
[8] = human gut metagenome, 24 h, 2 µM; remark: listed apart in the source
[9] = human gut metagenome, 24 h, 2 µM; remark: listed apart in the source
[10] = human gut metagenome, 24 h, 2 µM; remark: listed apart in the source
[11] = human gut metagenome, 24 h, 2 µM; remark: listed apart in the source
[12] = human gut metagenome, 24 h, 2 µM; remark: listed apart in the source
[13] = as §1, with “WLS-010” for “Z-009”, “human” for “pig”, “ERS12561743” for “ERS12561809”; conditions: 2 µM
[14] = human gut metagenome, 24 h, 2 µM; remark: listed apart in the source
[15] = as §1, with “WLS-073” for “Z-009”, “human” for “pig”, “ERS12561749” for “ERS12561809”; conditions: 2 µM
[16] = as §1, with “Z-007” for “Z-009”, “rat” for “pig”, “ERS12561807” for “ERS12561809”; conditions: 2 µM
[17] = as §1, with “Z-013” for “Z-009”, “rabbit” for “pig”, “ERS12561813” for “ERS12561809”; conditions: 2 µM
[18] = as §1, with “WLS-350” for “Z-009”, “human” for “pig”, “ERS12561789” for “ERS12561809”; conditions: 2 µM
[19] = as §1, with “Z-022” for “Z-009”, “mouse” for “pig”, “ERS12561821” for “ERS12561809”; conditions: 2 µM
[20] = as §1, with “WLS-052” for “Z-009”, “human” for “pig”, “ERS12561747” for “ERS12561809”; conditions: 2 µM
Also: call rule not given here.

Row | SMILES | Bacterial Biotransformation [1] | Bacterial Biotransformation [2] | Bacterial Biotransformation [3] | Bacterial Biotransformation [4] | Bacterial Biotransformation [5] | Bacterial Biotransformation [6] | Bacterial Biotransformation [7] | Bacterial Biotransformation [8] | Bacterial Biotransformation [9] | Bacterial Biotransformation [10] | Bacterial Biotransformation [11] | Bacterial Biotransformation [12] | Bacterial Biotransformation [13] | Bacterial Biotransformation [14] | Bacterial Biotransformation [15] | Bacterial Biotransformation [16] | Bacterial Biotransformation [17] | Bacterial Biotransformation [18] | Bacterial Biotransformation [19] | Bacterial Biotransformation [20]
1 | CCN(CC)C(=O)C1(c2ccccc2)CC1CN (configuration not stated) | Compound NOT metabolized | Compound NOT metabolized | Compound NOT metabolized | Compound NOT metabolized | Compound NOT metabolized | Compound NOT metabolized | Compound NOT metabolized | Compound NOT metabolized | Compound NOT metabolized | Compound NOT metabolized | Compound NOT metabolized | Compound NOT metabolized | Compound NOT metabolized | Compound NOT metabolized | Compound NOT metabolized | Compound NOT metabolized | Compound NOT metabolized | Compound NOT metabolized | Compound NOT metabolized | Compound NOT metabolized
2 | COc1ccc(/C=C/C(=O)Nc2ccccc2C(=O)O)cc1OC | Compound metabolized | Compound NOT metabolized | Compound NOT metabolized | Compound metabolized | Compound NOT metabolized | Compound NOT metabolized | Compound metabolized | Compound NOT metabolized | Compound NOT metabolized | Compound NOT metabolized | Compound NOT metabolized | Compound NOT metabolized | Compound metabolized | Compound metabolized | Compound metabolized | Compound NOT metabolized | Compound metabolized | Compound NOT metabolized | Compound metabolized | Compound metabolized
3 | CC(C)C[C@H]1C(=O)N2CCC[C@H]2[C@]2(O)O[C@](NC(=O)[C@@H]3C=C4c5cccc6[nH]c(Br)c(c56)C[C@H]4N(C)C3)(C(C)C)C(=O)N12.CS(=O)(=O)O [BROMOCRIPTINE MESYLATE] | Compound metabolized | Compound metabolized | Compound metabolized | Compound metabolized | Compound metabolized | Compound metabolized | Compound metabolized | Compound metabolized | Compound metabolized | Compound metabolized |  | Compound metabolized | Compound metabolized |  | Compound metabolized | Compound metabolized | Compound metabolized | Compound metabolized | Compound metabolized | Compound metabolized
4 | CC(NC(C)(C)C)C(=O)c1cccc(Cl)c1 (configuration not stated) [BUPROPION] | Compound NOT metabolized | Compound NOT metabolized | Compound NOT metabolized | Compound NOT metabolized | Compound NOT metabolized | Compound NOT metabolized | Compound NOT metabolized | Compound NOT metabolized | Compound NOT metabolized | Compound NOT metabolized | Compound NOT metabolized | Compound NOT metabolized |  | Compound NOT metabolized | Compound NOT metabolized | Compound NOT metabolized | Compound metabolized | Compound NOT metabolized | Compound NOT metabolized | Compound NOT metabolized
5 | CN1[C@@H]2CC[C@H]1C[C@@H](OC(=O)[C@H](CO)c1ccccc1)C2 [HYOSCYAMINE] | Compound metabolized |  | Compound metabolized | Compound NOT metabolized | Compound NOT metabolized |  | Compound NOT metabolized |  |  |  | Compound NOT metabolized |  |  | Compound metabolized | Compound NOT metabolized | Compound NOT metabolized | Compound NOT metabolized |  | Compound NOT metabolized | 
6 | COC1=C(OC)C(=O)C(CCCCCCCCCCO)=C(C)C1=O [IDEBENONE] | Compound metabolized | Compound metabolized | Compound NOT metabolized | Compound metabolized | Compound NOT metabolized |  | Compound metabolized | Compound metabolized | Compound metabolized |  | Compound NOT metabolized | Compound metabolized | Compound metabolized | Compound metabolized | Compound metabolized | Compound metabolized | Compound metabolized | Compound metabolized | Compound NOT metabolized | Compound metabolized
7 | CC(=O)O[C@H]1C(=O)[C@@]2(C)[C@H]([C@H](OC(=O)c3ccccc3)[C@]3(O)C[C@H](OC(=O)[C@H](O)[C@@H](NC(=O)c4ccccc4)c4ccccc4)C(C)=C1C3(C)C)[C@]1(OC(C)=O)CO[C@@H]1C[C@@H]2O [PACLITAXEL] | Compound metabolized | Compound NOT metabolized | Compound NOT metabolized | Compound metabolized | Compound NOT metabolized | Compound NOT metabolized | Compound metabolized |  |  | Compound NOT metabolized | Compound NOT metabolized | Compound NOT metabolized | Compound metabolized | Compound NOT metabolized | Compound metabolized | Compound NOT metabolized | Compound metabolized | Compound NOT metabolized | Compound metabolized | Compound metabolized
8 | COc1cc(NC(C)CCCN)c2ncccc2c1.O=P(O)(O)O.O=P(O)(O)O (configuration not stated) [PRIMAQUINE PHOSPHATE] | Compound NOT metabolized | Compound NOT metabolized | Compound metabolized | Compound NOT metabolized | Compound NOT metabolized | Compound NOT metabolized | Compound metabolized | Compound NOT metabolized | Compound NOT metabolized | Compound NOT metabolized | Compound metabolized | Compound NOT metabolized |  | Compound metabolized | Compound NOT metabolized | Compound NOT metabolized | Compound NOT metabolized | Compound NOT metabolized | Compound NOT metabolized | Compound NOT metabolized
9 | COc1cc(C(=O)NCc2ccc(OCCN(C)C)cc2)cc(OC)c1OC [TRIMETHOBENZAMIDE] | Compound metabolized | Compound NOT metabolized | Compound NOT metabolized | Compound NOT metabolized | Compound NOT metabolized | Compound NOT metabolized | Compound NOT metabolized | Compound NOT metabolized | Compound NOT metabolized | Compound NOT metabolized | Compound NOT metabolized | Compound NOT metabolized | Compound NOT metabolized |  | Compound NOT metabolized | Compound NOT metabolized | Compound NOT metabolized | Compound NOT metabolized | Compound NOT metabolized | Compound NOT metabolized
